US9469639B2, “Naphthylurea derivatives and medical applications thereof” (RADIANT PHARMA & TECH. CO., LTD., priority 2013, dated 2016)
Values after ≈ are worked out from the molar mass of the structure shown.

Assay: Water-solubility test
Type: physicochemical
Conditions: 22° C.; for solubility at 24 h: water, pH 5.5, water, thermodynamic from solid, ultrasonic mixing for 24 hours, pH5.5, average of two experiments

Compound | Water solubility relative to compound (IV) (pH5.5, ratio versus compound (IV)) [times] | solubility at 24 h [µg/mL]
Cc1ccc(F)c(NC(=O)Nc2ccc(-c3ccc(OCCCN4CCCC4)c4[nH]nc(N)c34)c3ccccc23)c1 [Compound (V)] | 6.9 | 0.64 (≈ 1.16 µM)
Cc1cccc(NC(=O)Nc2ccc(-c3cncc4[nH]nc(N)c34)c3ccccc23)c1 [Compound (IV)] | – | 0.0925 (≈ 0.226 µM)
